Laboratory results published in patent publication US20240390315A1, “NUTRITIONAL COMPOSITIONS” (MITOCHOLINE Ltd, priority 2021, published 2024).

Assays:
[1] = plasma, healthy adult males, single oral beverage supplying 550 mg choline, after overnight fasting; ranking among the three supplements
Description: Study: a randomized cross-over study on 12 adult male subjects.
Subjects: 12 healthy adult male subjects (3 placebo and 9 test supplement (each supplement group-3 subjects)) who are between 30 and 60 years of age.
Duration: One-day oral administration of a choline supplement was followed by 1 week of wash-out before the start of administration of the next (different) choline supplement.
Subjects took each of the three supplements in randomized sequence with interspersed wash-out periods of 1 week. […] The beverages were consumed in the morning after overnight fasting. Blood (2.7 ml EDTA) was taken before intake (−0.1 h) and at 0.5, 1, 1.5, 2, 3, 4, 5, and 6 h after intake. Collected blood was immediately centrifuged at 1000×g at room temperature for 10 min. Plasma was separated and stored at −80° C. until analysis. […] Equipment for analysis: TSQ Quantum Discovery MAX tandem mass spectrometer, a Finnigan Surveyor Autosampler Plus, and a Finnigan Surveyor MS Pump Plus (Thermo Fisher Scientific, Dreieich, Germany), and choline, betaine were separated on a Polaris Si-A® column at 40° C. and the components were analyzed.

[2] = molecular target: neuronal insulin receptor (Homo sapiens, UniProt P06213); conditions: cited from earlier work
isolated mitochondria = conditions: rat liver mitochondria incubated 15 min at 37° C. with test substrate, LC-MS/MS; compared with choline chloride
Description: Livers from male Wistar rats were homogenized using a Teflon®-glass Potter-Elvehjem homogenizer in the isolation medium containing 0.25 M sucrose, 0.02 M Tris-HCl, 0.001 M EDTA, pH 7.2. The homogenates prepared in this way were centrifuged at 600 g for 10 min at 4° C. to precipitate nuclei and cell debris. Then the supernatant was separated from the sediment and subjected to centrifugation at 8500 g for 10 min at 4° C. to precipitate mitochondria.

Chain of neuronal insulin receptor (P06213 28-1382): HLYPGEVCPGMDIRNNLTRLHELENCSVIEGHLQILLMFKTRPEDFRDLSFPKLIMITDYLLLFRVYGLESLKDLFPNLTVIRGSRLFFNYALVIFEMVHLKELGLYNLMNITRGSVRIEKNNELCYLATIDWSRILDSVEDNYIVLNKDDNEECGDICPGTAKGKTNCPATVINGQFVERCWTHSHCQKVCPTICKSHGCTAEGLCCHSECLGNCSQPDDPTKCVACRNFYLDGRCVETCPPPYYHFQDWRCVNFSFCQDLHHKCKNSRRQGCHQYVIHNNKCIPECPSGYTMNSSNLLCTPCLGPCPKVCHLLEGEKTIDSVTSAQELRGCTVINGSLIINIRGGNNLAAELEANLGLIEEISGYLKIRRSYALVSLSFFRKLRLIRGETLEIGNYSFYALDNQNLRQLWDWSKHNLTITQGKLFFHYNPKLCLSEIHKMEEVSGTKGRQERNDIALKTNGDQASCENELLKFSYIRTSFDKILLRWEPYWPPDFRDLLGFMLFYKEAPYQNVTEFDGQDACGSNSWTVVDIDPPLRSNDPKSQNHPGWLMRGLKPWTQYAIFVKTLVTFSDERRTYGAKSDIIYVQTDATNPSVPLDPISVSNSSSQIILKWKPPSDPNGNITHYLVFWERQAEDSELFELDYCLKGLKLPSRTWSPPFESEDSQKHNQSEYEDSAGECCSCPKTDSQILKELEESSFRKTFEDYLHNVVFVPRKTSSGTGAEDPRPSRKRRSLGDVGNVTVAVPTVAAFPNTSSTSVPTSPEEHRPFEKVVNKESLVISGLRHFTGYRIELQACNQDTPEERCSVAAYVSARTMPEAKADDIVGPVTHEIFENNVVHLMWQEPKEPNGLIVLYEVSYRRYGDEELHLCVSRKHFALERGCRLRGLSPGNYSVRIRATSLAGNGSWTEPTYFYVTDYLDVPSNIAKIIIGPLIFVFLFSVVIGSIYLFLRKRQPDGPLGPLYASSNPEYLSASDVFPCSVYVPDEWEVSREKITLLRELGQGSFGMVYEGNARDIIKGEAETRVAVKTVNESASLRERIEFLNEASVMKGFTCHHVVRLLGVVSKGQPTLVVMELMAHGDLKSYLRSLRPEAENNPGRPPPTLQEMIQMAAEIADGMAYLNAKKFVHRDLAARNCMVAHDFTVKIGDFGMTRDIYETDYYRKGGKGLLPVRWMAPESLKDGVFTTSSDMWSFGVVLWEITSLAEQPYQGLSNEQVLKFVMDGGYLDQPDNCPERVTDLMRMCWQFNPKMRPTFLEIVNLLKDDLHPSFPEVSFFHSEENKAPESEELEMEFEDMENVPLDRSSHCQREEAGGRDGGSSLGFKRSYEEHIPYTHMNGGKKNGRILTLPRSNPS

Row | Molecule | AUC (0-6 h) of betaine concentrations [1] | sensitization of the neuronal insulin receptor [2] | betaine yield (concentration of betaine in the incubation medium) (isolated mitochondria)
1 | C[N+](C)(C)CCO.[Cl-] [choline chloride] | lowest |  | 
2 | C[N+](C)(C)CCO.O=C([O-])C(O)C(O)C(=O)O (stereo not shown) [choline bitartrate] | dicholine succinate>choline bitartrate>choline chloride |  | 
3 | dicholine succinate [DiSu] |  | potent sensitizer | higher betaine yields
